Reference: paper PMC5691623 (Viruses, 2017)

Tested on: SFV vector VA7-mCherry
Test: Live microscopy of SFV infection in Pa02C pancreatic cancer cells
Type: cell-based, Semliki Forest virus
Conditions: 1 µM, low moi (0.01), 96 h

Structure (SMILES): CC1(C)CCC(c2ccc(Cl)cc2)=C(CN2CCN(c3ccc(C(=O)NS(=O)(=O)c4ccc(N[C@H](CCN5CCOCC5)CSc5ccccc5)c(S(=O)(=O)C(F)(F)F)c4)cc3)CC2)C1 [ABT-263]
- effect on replication and spread of SFV: attenuated the replication and spread of the virus
